# Measured values from US8236788B2, “Azolylmethyloxiranes, use thereof for controlling plant pathogenic fungi, and agents containing the same” (BASF SE, priority 2006, dated 2012).
# Assays:
# Puccinia recondita = assay: Protective activity against brown rust of wheat (Puccrt P1), greenhouse; format: in vivo, Puccinia recondita on wheat seedlings; conditions: 63 ppm active compound, protective spray 1 day before inoculation, assessed visually after further 7 days; untreated plants 90% infected
# Experimental: (§1) The active compounds were prepared separately or jointly as a stock solution comprising 25 mg of active compound which was made up to 10 ml using a mixture of acetone and/or DMSO and the emulsifier Wettol EM 31 (wetting agent having emulsifying and dispersing action based on ethoxylated alkylphenols) in a volume ratio of solvent/emulsifier of 99:1. The mixture was then made up to 100 ml with water. This stock solution was diluted with the solvent/emulsifier/water mixture described to give the concentration of active compounds stated below.
# Leaves of potted wheat seedlings were sprayed to run off point with an aqueous suspension having the active compound concentration stated below. The next day, the treated plants were inoculated with a spore suspension of brown rust of wheat (Puccinia recondita). The plants were then placed in a chamber with high atmospheric humidity (90 to 95%) at 20 to 22° C. for 24 hours. During this time, the spores germinated and the germ tubes penetrated into the leaf tissue. The next day, the test plants were returned to the greenhouse and cultivated at temperatures between 20 and 22° C. and 65 to 70% relative atmospheric humidity for a further 7 days. The extent of the rust fungus development on the leaves was then determined visually.
# Sphaerotheca fuliginea = assay: Activity against mildew on cucumber leaves, protective application (Sphrfu P1), greenhouse; format: in vivo, Sphaerotheca fuliginea on cucumber seedlings; conditions: 63 ppm active compound, protective spray 20 hours before inoculation, assessed visually after 7 days; untreated plants 90% infected
# Experimental: as §1
# At the cotyledon stage, leaves of potted cucumber seedlings were sprayed to run off point with an aqueous suspension having the active compound concentration below. 20 hours after the spray coating had dried on, the plants were inoculated with an aqueous spore suspension of mildew of cucumber (Sphaerotheca fuliginea). The plants were then cultivated in a greenhouse at temperatures between 20 and 24° C. and 60 to 80% relative atmospheric humidity for 7 days. The extent of the mildew development was then determined visually in % infection of the cotyledon area.
structure (smiles),measurement,setting,value
"N#Cc1ccc(C2(Cn3cncn3)OC2c2ccccc2F)c(F)c1 (stereo not drawn) [Compound 69.3, 4-{anti-2-[(1H-1,2,4-triazol-1-yl)methyl]-3-[2-fluorophenyl]oxiran-2-yl}-3-fluorobenzonitrile]",infection (extent of rust fungus development on the leaves),Puccinia recondita,0%
same,infection of the cotyledon area,Sphaerotheca fuliginea,1%
